Values quoted from earlier work in patent US20060088612A1, “Composition for treatment of topical infection and methods of making and using same” (priority 2004, published 2006).

System: HSV
Conditions: topical medication for HSV

CCCCCCCCCCCCCCCCCCCCCCO [docosanol]
effectiveness versus placebo: no more effective than a placebo
